Data taken from patent publication US20040009602A1, “DNA modifying molecules and methods of use thereof” (The Government of the U.S.A. as represented by the …, priority 2002, published 2004).

System: HPRT gene
Experiment: Hprt mutation assay in synchronized CHO cells
Assay type: cell-based, Chinese Hamster
Protocol: Synchronization protocol: Chinese Hamster Ovary (CHO) AA8 cells (ATCC) were prepared as described above for the HPRT knockout assay. The cells were synchronized in G0/G1 by a variation of the method described by Sawai et al. (96). Briefly, cells were plated at subconfluent levels and the next day the medium changed to DMEM with 2% FBS and 2% DMSO. After 48 h the cells were washed (˜85% G0/G1 cells by FACS analysis) and either electroporated or fed with complete medium (for G1 phase experiments), or incubated with complete medium containing 100 μM mimosine for 16 hrs to block them in early S phase (˜90% early S cells). See Orren et al. for complete details on this procedure (49). After 16 hrs the cells were released from the mimosine block by feeding with DMEM/10% FBS. TFO electroporation, Psoralen treatment, and Hprt mutation assay: Cells were suspended at 10^7/mL and mixed with TFO at 5 μM. The cells were electroporated (BioRad), followed by incubation at room temperature for 3 hrs, and a 3 min exposure in a Rayonet chamber to UVA light at 1.8 J/cm^2. […] Cells treated with free psoralen were incubated with 5 μM psoralen for 30 min, followed by UVA treatment. The cells were passaged and then exposed to thioguanine (TG) selection (43).

O=c1ccc2cc3ccoc3cc2o1 [psoralen]
frequency of thioguanine resistant colonies (5 μM free psoralen 30 min, UVA, different phases of cell cycle, background 0.001%): 0.004-0.005% | cell cycle variability of mutation frequency (free psoralen/UVA): essentially unchanged across the cell cycle
